Source: PubChem BioAssay AID330 (DTP/NCI, 2004)
Where “and” joins values, the source holds several entries; their conditions need not be identical. Equal values may be shown once. Inconclusive results and toxic doses are left out.

System: P388 leukemia ip, CD2F1 mice, survival T/C
Test: NCI In Vivo Anticancer Drug Screen. Data for tumor model P388 Leukemia (intraperitoneal) in CD2F1 (CDF1) mice
Details: endpoint: median survival time, higher = longer survival
Method in brief: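 Mice carrying the transplanted tumor received test compound or vehicle. Survival was recorded in each group, and the value is the treated-group measurement divided by that of the vehicle-treated control group.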

[1] = dose: 50.0 mg/kg/injection, schedule: Q01DX009 (ip), vehicle: saline with Tween-80
[2] = dose: 100.0 mg/kg/injection, schedule: Q01DX009 (ip), vehicle: saline with Tween-80
[3] = dose: 200.0 mg/kg/injection, schedule: Q01DX009 (ip), vehicle: saline with Tween-80
[4] = dose: 50.0 mg/kg/injection, schedule: Q01DX009 (ip), vehicle: saline
[5] = dose: 100.0 mg/kg/injection, schedule: Q01DX009 (ip), vehicle: saline
[6] = dose: 200.0 mg/kg/injection, schedule: Q01DX009 (ip), vehicle: saline
[7] = dose: 50.0 mg/kg/injection, schedule: Q01DX005 (ip), vehicle: Klucel (hydroxypropylcellulose) (HPC)
[8] = dose: 100.0 mg/kg/injection, schedule: Q01DX005 (ip), vehicle: Klucel (hydroxypropylcellulose) (HPC)
[9] = dose: 200.0 mg/kg/injection, schedule: Q01DX005 (ip), vehicle: Klucel (hydroxypropylcellulose) (HPC)
[10] = dose: 50.0 mg/kg/injection, schedule: Q01DX001 (ip), vehicle: Klucel (hydroxypropylcellulose) (HPC)
[11] = dose: 100.0 mg/kg/injection, schedule: Q01DX001 (ip), vehicle: Klucel (hydroxypropylcellulose) (HPC)
[12] = dose: 200.0 mg/kg/injection, schedule: Q01DX001 (ip), vehicle: Klucel (hydroxypropylcellulose) (HPC)
[13] = dose: 60.0 mg/kg/injection, schedule: Q01DX005 (ip), vehicle: saline with Tween-80
[14] = dose: 120.0 mg/kg/injection, schedule: Q01DX005 (ip), vehicle: saline with Tween-80
[15] = dose: 240.0 mg/kg/injection, schedule: Q01DX005 (ip), vehicle: saline with Tween-80
[16] = dose: 50.0 mg/kg/injection, schedule: Q01DX009 (ip), vehicle: Klucel (hydroxypropylcellulose) (HPC)
[17] = dose: 100.0 mg/kg/injection, schedule: Q01DX009 (ip), vehicle: Klucel (hydroxypropylcellulose) (HPC)
[18] = dose: 200.0 mg/kg/injection, schedule: Q01DX009 (ip), vehicle: Klucel (hydroxypropylcellulose) (HPC)

## COc1ccc2c(c1)C(Cc1ccc(Oc3cc(CC4c5cc(OC)ccc5CC[N+]4(C)C)ccc3OC)cc1)[N+](C)(C)CC2 (configuration not stated)
dose: 1.56 mg/kg/injection, schedule: Q04DX003 (ip), vehicle: water
  T/C: 106 % of control
dose: 3.13 mg/kg/injection, schedule: Q04DX003 (ip), vehicle: water
  T/C: 102 % of control

## CCN(CC)Cc1cc(C)c(O)c(N=Nc2ccc3c4c(cccc24)-c2ccccc2-3)c1C
[1]
  T/C: 90 % of control
[2]
  T/C: 93 % of control
[3]
  T/C: 89 % of control

## O=C1COC(c2ccccc2O)=NN1CCCN1CCCC1
dose: 12.5 mg/kg/injection, schedule: Q01DX001 (ip), vehicle: saline
  T/C: 100 % of control
dose: 25.0 mg/kg/injection, schedule: Q01DX001 (ip), vehicle: saline
  T/C: 100 % of control
dose: 50.0 mg/kg/injection, schedule: Q01DX001 (ip), vehicle: saline
  T/C: 107 % of control
dose: 100.0 mg/kg/injection, schedule: Q01DX001 (ip), vehicle: saline
  T/C: 103 % of control

## CP1(=S)CCC(=O)C1 (configuration not stated)
[4]
  T/C: 101 % of control
[5]
  T/C: 101 % of control
[6]
  T/C: 103 % of control

## CCOC(=O)C1=C(c2ccccc2)OC(N)=C(C#N)C1c1ccccc1 (configuration not stated)
[7]
  T/C: 107 % of control
[8]
  T/C: 103 % of control
[9]
  T/C: 101 % of control

## CC(=O)Nc1ccccc1C(C)=O
[1]
  T/C: 91 % of control
dose: 50.0 mg/kg/injection, schedule: Q04DX003 (ip), vehicle: saline with Tween-80
  T/C: 95 % of control
[2]
  T/C: 95 % of control
dose: 100.0 mg/kg/injection, schedule: Q04DX003 (ip), vehicle: saline with Tween-80
  T/C: 100 % of control
[3]
  T/C: 100 % of control
dose: 200.0 mg/kg/injection, schedule: Q04DX003 (ip), vehicle: saline with Tween-80
  T/C: 100 % of control

## CCC(C)C1NC(=O)C(NC(=O)c2c3nc4c(C(=O)NC5C(=O)NC(C(C)CC)C(=O)N6CCCC6C(=O)N(C)CC(=O)N(C)C(C(C)C)C(=O)OC5C)cc(N)c(C)c4oc-3c(C)c(=O)c2N)C(C)OC(=O)C(C(C)C)N(C)C(=O)CN(C)C(=O)C2CCCN2C1=O (configuration not stated)
dose: 0.1 mg/kg/injection, schedule: Q01DX009 (ip), vehicle: Klucel (hydroxypropylcellulose) (HPC)
  T/C: 247 % of control
dose: 0.2 mg/kg/injection, schedule: Q01DX009 (ip), vehicle: Klucel (hydroxypropylcellulose) (HPC)
  T/C: 230 % of control
dose: 100.0 micrograms/kg/injection, schedule: Q01DX009 (ip), vehicle: water
  T/C: 152 % of control
dose: 150.0 micrograms/kg/injection, schedule: Q01DX009 (ip), vehicle: water
  T/C: 166 % of control
dose: 225.0 micrograms/kg/injection, schedule: Q01DX009 (ip), vehicle: water
  T/C: 177 % of control

## CC1=C2C(=CC(C)(CO)C2O)C(O)C(C)(O)C12CC2 (configuration not stated)
dose: 0.78 mg/kg/injection, schedule: Q01DX009 (ip), vehicle: water
  T/C: 100 % of control
dose: 1.56 mg/kg/injection, schedule: Q01DX009 (ip), vehicle: water
  T/C: 114 % of control
dose: 3.13 mg/kg/injection, schedule: Q01DX009 (ip), vehicle: water
  T/C: 105 % of control
dose: 6.25 mg/kg/injection, schedule: Q01DX009 (ip), vehicle: water
  T/C: 112 % of control
dose: 12.5 mg/kg/injection, schedule: Q01DX009 (ip), vehicle: water
  T/C: 118 % of control

## CC(CCCSC(=N)N)SC(=N)N (configuration not stated)
dose: 12.5 mg/kg/injection, schedule: Q01DX009 (ip), vehicle: saline
  T/C: 105 % of control
dose: 25.0 mg/kg/injection, schedule: Q01DX009 (ip), vehicle: saline
  T/C: 98 % of control
[4]
  T/C: 104 % of control

## O=C(Nc1ccccc1)N1CC2(CN1)CNN(C(=O)Nc1ccccc1)C2
[10]
  T/C: 103 % of control
[11]
  T/C: 100 % of control
[12]
  T/C: 91 % of control

## O=c1[nH][nH]c(=O)n1/N=C\c1ccccc1O
[10]
  T/C: 100 % of control
[11]
  T/C: 104 % of control
[12]
  T/C: 98 % of control

## C/C1=C/C(C)C(O)C(O)C(=O)C2(C)CNC3=C(O2)C(=O)c2c(cc(C)c(O)c2C1=O)C3=O (configuration not stated)
dose: 0.5 mg/kg/injection, schedule: Q01DX009 (ip), vehicle: distilled water + Tween-80
  T/C: 102 % of control and 122 % of control
dose: 1.0 mg/kg/injection, schedule: Q01DX009 (ip), vehicle: distilled water + Tween-80
  T/C: 106 % of control and 117 % of control
dose: 2.0 mg/kg/injection, schedule: Q01DX009 (ip), vehicle: distilled water + Tween-80
  T/C: 108 % of control
dose: 4.0 mg/kg/injection, schedule: Q01DX009 (ip), vehicle: distilled water + Tween-80
  T/C: 102 % of control and 103 % of control
dose: 16.0 mg/kg/injection, schedule: Q01DX009 (ip), vehicle: distilled water + Tween-80
  T/C: 103 % of control and 107 % of control
dose: 32.0 mg/kg/injection, schedule: Q01DX009 (ip), vehicle: distilled water + Tween-80
  T/C: 101 % of control and 103 % of control
dose: 4.0 micrograms/kg/injection, schedule: Q01DX009 (ip), vehicle: water
  T/C: 115 % of control
dose: 8.0 micrograms/kg/injection, schedule: Q01DX009 (ip), vehicle: water
  T/C: 99 % of control
dose: 16.0 micrograms/kg/injection, schedule: Q01DX009 (ip), vehicle: water
  T/C: 98 % of control
dose: 32.0 micrograms/kg/injection, schedule: Q01DX009 (ip), vehicle: water
  T/C: 99 % of control
dose: 64.0 micrograms/kg/injection, schedule: Q01DX009 (ip), vehicle: saline + alcohol
  T/C: 100 % of control
dose: 64.0 micrograms/kg/injection, schedule: Q01DX009 (ip), vehicle: water
  T/C: 102 % of control
dose: 128.0 micrograms/kg/injection, schedule: Q01DX009 (ip), vehicle: saline + alcohol
  T/C: 100 % of control
dose: 256.0 micrograms/kg/injection, schedule: Q01DX009 (ip), vehicle: saline + alcohol
  T/C: 103 % of control

## CC1(C)CC2(CC(C)(C)N1O)NC(=O)OC2=O
[13]
  T/C: 97 % of control
[14]
  T/C: 97 % of control
[15]
  T/C: 106 % of control

## CCOC(=S)c1cccc(C(=S)OCC)c1
[1]
  T/C: 104 % of control
[2]
  T/C: 100 % of control
[3]
  T/C: 103 % of control

## CS(=O)(=O)/C=C/c1cccc(O)c1
[16]
  T/C: 97 % of control
[17]
  T/C: 96 % of control
[18]
  T/C: 89 % of control

## Cc1cc(O)c(-c2c(-c3ccccc3C(=O)O)oc3cc(C)c(C)cc23)cc1C
[4]
  T/C: 89 % of control
[5]
  T/C: 89 % of control
[6]
  T/C: 90 % of control

## CCCCC(C)(CN(C)C)C(=O)/C=C/c1ccccc1 (configuration not stated)
[4]
  T/C: 108 % of control
[5]
  T/C: 115 % of control
[6]
  T/C: 86 % of control

## CCS/C(SC)=C(/c1ccccc1)[P+](c1ccccc1)(c1ccccc1)c1ccccc1
dose: 3.12 mg/kg/injection, schedule: Q01DX005 (ip), vehicle: Klucel (hydroxypropylcellulose) (HPC)
  T/C: 106 % of control
dose: 12.5 mg/kg/injection, schedule: Q01DX005 (ip), vehicle: Klucel (hydroxypropylcellulose) (HPC)
  T/C: 117 % of control

## COc1ccc2c(c1[N+](=O)[O-])CCCC(Br)(Br)C2=O
[16]
  T/C: 107 % of control
[17]
  T/C: 107 % of control
[18]
  T/C: 108 % of control

## COc1ccc(OC)c(NC(=O)Nc2nc(C)cs2)c1
[16]
  T/C: 92 % of control
[17]
  T/C: 93 % of control
[18]
  T/C: 90 % of control

## CCOC(=O)c1c(Cl)c(Cc2ccccc2)c(Cl)n2c1nc1ccccc12
[13]
  T/C: 99 % of control
[14]
  T/C: 93 % of control
[15]
  T/C: 89 % of control

## N#Cc1cc2cccn2c2c1cnn2-c1ccccc1
[13]
  T/C: 105 % of control
[14]
  T/C: 98 % of control
[15]
  T/C: 89 % of control

## CN1C(=O)c2ccc3c4ccc5c6c(ccc(c7ccc(c2c37)C1=O)c64)C(=O)N(c1ccccc1)C5=O
[7]
  T/C: 87 % of control
[8]
  T/C: 86 % of control
[9]
  T/C: 86 % of control

## Cn1c2c(c(=O)n(C)c1=O)N1c3c(n(C)c(=O)n(C)c3=O)NN1C(c1ccccc1)=N2
dose: 100.0 mg/kg/injection, schedule: Q01DX001 (ip), vehicle: saline with Tween-80
  T/C: 95 % of control
dose: 200.0 mg/kg/injection, schedule: Q01DX001 (ip), vehicle: saline with Tween-80
  T/C: 88 % of control
dose: 400.0 mg/kg/injection, schedule: Q01DX001 (ip), vehicle: saline with Tween-80
  T/C: 89 % of control

## O=C(NC(Cc1ccc([N+](=O)[O-])cc1)C(=O)O)c1ccccc1 (configuration not stated)
dose: 25.0 mg/kg/injection, schedule: Q01DX009 (ip), vehicle: other
  T/C: 104 % of control
dose: 50.0 mg/kg/injection, schedule: Q01DX009 (ip), vehicle: other
  T/C: 110 % of control
dose: 100.0 mg/kg/injection, schedule: Q01DX009 (ip), vehicle: other
  T/C: 104 % of control
